Experimental data as given in patent US20120129842A1, “BISTHIAZOLE INHIBITORS OF PRO-MATRIX METALLOPROTEINASE ACTIVATION” (priority 2010, published 2012).

Assays:
MMP9 = molecular target: T1, MMP9 (Rattus norvegicus, UniProt P50282); experiment: Pro and active MMP9 in ankles of rats with SCW-induced arthritis by Western blot; assay type: in vivo; conditions: Day 26, four hours after AM dose, mAb-L51/82, FIG. 3A
T1 construct: Pro and active MMP9 were abundantly present in ankles of SCW-induced vehicle-treated rats; from tissue; host or cells: ankle (tibia-tarsus joint) homogenates of female Lewis rats
Description: Hind-limbs were skinned, severed just above the tibia-tarsus joint and below the metatarsals, and the tibia-tarsus joints (ankles) were weighed, snap frozen and pulverized on dry ice using a hammer and anvil. The pulverized tissue was suspended in 3 volumes (w:v) of ice-cold homogenization buffer containing 50 mM Tris pH 7.5, 150 mM NaCl, 5 mM EDTA, 1% Triton X100, 0.05% Brij 30, 10% dimethylsulfoxide and Complete EDTA-free Protease Inhibitor Cocktail (Roche Diagnostics). The suspended tissue was homogenized sequentially with a Kinematica AG Polytron and a Dounce homogenizer. Homogenates were centrifuged at 16,000×g for 10 min at 4° C. and the soluble fractions were saved. Dimethylsulfoxide was removed from a portion of each soluble fraction using PD MiniTrap™ G-25 desalting columns (GE Healthcare). Homogenates (0.25 mL), free of DMSO, were diluted with an equal volume of binding buffer (i.e., homogenization buffer without dimethylsufoxide) and adjusted to contain 50 μL of a 50% slurry of gelatin-conjugated sepharose. Following 2 hours of rotation at 4° C. the beads were washed twice in binding buffer and eluted in 100 μL 2×-reducing Laemmli buffer with heating to 95° C. for 5 minutes. […]

[1] = molecular target: T2, MMP9 mediated gelatinase activity (Rattus norvegicus, UniProt P50282); experiment: Liver in situ zymography of SCW-induced rats dosed with compound; assay type: in vivo; conditions: for Intensity (RLU × 10^6) Rat 1 / Intensity (RLU × 10^6) Rat 2 / Intensity (RLU × 10^6) Rat 3 / Intensity (RLU × 10^6) Mean: Day 25-28, liver; for Intensity (RLU × 10^6) Mean: n=3
T2 construct: from tissue; host or cells: liver cryosections of female Lewis rats
Source text: In situ zymography provides an alternative approach to assess active MMP9 in tissues (Frederiks). Tissue sections are overlain with fluorescene-conjugated gelatin wherein the conjugation is sufficiently dense to cause the fluorescene to be dye-quenched (DQ). Proteolytic degradation of the DQ-gelatin releases the fluorescene from the quenching effect giving rise to bright green fluorescence at the site of degradation. Because in situ zymography requires the use of frozen sections, calcified tissues are problematic. However, an additional feature of the SCW arthritis model is the development of hepatic granulomatous disease (J Immunol; 1986; 137:2199-2209), and MMP9 reportedly plays a role in macrophage recruitment in the granulomas response to mycobacteria (Infect Immun; 2006; 74:6135-6144). Consequently, granulomatous livers from SCW-treated rats were assessed for active MMP9 by in situ zymography.
As described above, Female Lewis (LEW/N) rats, 5-6 weeks of age (80-100 g) were injected (i.p.) with saline or SCW PG-PS. On day 28, when the granulomatous response was well established, animals were sacrificed and livers were frozen in OCT cryo-sectioning medium and 10 μm sections were cut on a Cryome HM 500 M cryotome and mounted on glass microscope slides. Sections were air dried briefly. MMP9 was confirmed as the source of the gelatinase activity in the liver by treating liver sections with monoclonal antibodies directed against the active site of the two major gelatinases MMP9 and MMP2. Liver sections overlain with 50 μL of 100 μg/mL neutralizing mouse monoclonal antibodies directed against MMP9 (Calbiochem, clone 6-6B), or MMP2 (Millipore, clone CA-4001), or with PBS for 1 hr at room temperature. Tissues were rinsed once with PBS, blotted, and briefly air dried and then overlain with DQ-gelatin (Invitrogen) dissolved to 1 mg/mL in deionized water and then diluted 1:10 in 1% wt/vol low gelling point agarose type VII (Sigma) in PBS. The sections were covered with coverslips, incubated in the dark at room temperature for 20 min, and imaged on an Olympus IX80 inverted microscope fitted with fluorescence optics, using SlideBook™ imaging software (Intelligent Imaging Innovations, Inc., Philadelphia, Pa.; version 5.0). Fluorescence intensity was determined (Table 8). When compared to a saline-treated rat, gelatinase activity was abundantly expressed in granulomatous liver sections obtained from a rat with SCW arthritis.
Next, liver in situ zymography was used to assess the relative presence of active MMP9 in rats dosed with vehicle vs. Example 64. Female Lewis (LEW/N) rats, 5-6 weeks of age (80-100 g) were injected (i.p.) with saline or SCW PG-PS. Commencing on day 25, randomized groups of rats (n=3 rats/group) received vehicle or 20 or 50 mg/kg Example 64 BID by oral gavage. Vehicle consisted of an aqueous mixture containing 2% (v:v) N-methylpyrrolidone, 5% (v:v) glycerine, and 20% (w:v) captisol. Treatment continued daily through the morning of day 28. Four hrs after the AM dose on day 28, rats were sacrificed and livers assessed for active MMP9 by in situ zymography (Table 9). Gelatinase activity was increased markedly in SCW-induced rats, but activity was reduced by approximately 80% in animals treated with 50 mg/kg Example 64.

T2 sequence (P50282 108-708): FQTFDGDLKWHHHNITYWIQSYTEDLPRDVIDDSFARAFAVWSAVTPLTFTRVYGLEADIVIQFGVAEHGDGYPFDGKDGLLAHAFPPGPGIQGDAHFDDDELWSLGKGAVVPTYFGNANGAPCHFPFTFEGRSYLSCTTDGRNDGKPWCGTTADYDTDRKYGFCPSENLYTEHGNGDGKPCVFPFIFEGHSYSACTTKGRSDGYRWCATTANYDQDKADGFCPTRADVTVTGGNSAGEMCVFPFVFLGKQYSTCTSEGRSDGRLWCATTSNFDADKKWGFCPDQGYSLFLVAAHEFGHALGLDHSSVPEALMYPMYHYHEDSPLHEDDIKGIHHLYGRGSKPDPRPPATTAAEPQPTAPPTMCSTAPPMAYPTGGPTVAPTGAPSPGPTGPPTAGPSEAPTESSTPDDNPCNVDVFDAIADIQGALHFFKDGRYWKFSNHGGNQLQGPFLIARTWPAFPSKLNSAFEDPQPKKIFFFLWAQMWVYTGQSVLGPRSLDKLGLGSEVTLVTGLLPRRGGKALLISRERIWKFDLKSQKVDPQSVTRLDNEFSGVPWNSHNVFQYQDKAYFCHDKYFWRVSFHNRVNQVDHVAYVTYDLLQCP
T1 sequence (P50282 108-708): as above

For `Cc1nc(C)c(-c2csc(Nc3cc(S(N)(=O)=O)ccc3OC(C)C)n2)s1` [Example 64, 3-(2′,4′-Dimethyl-[4,5′]bithiazolyl-2-ylamino)-4-isopropoxy-benzenesulfonamide.HBr], the “abundance of proMMP9 in ankles” value (MMP9) was “did not reduce the abundance of proMMP9”, the “Intensity (RLU × 10^6) Rat 1” value ([1]; 20 mg/kg BID oral) was 43.0 RLU × 10^6 and the “Intensity (RLU × 10^6) Rat 2” value ([1]; 20 mg/kg BID oral) was 69.0 RLU × 10^6. For the same compound, the “Intensity (RLU × 10^6) Rat 3” value ([1]; 20 mg/kg BID oral) was 53.7 RLU × 10^6, the “Intensity (RLU × 10^6) Mean” value ([1]; 20 mg/kg BID oral) was 55.2 RLU × 10^6 and the “reduction of gelatinase activity in liver” value ([1]; 50 mg/kg BID oral, Day 25-28) was “approximately 80%”. The “Intensity (RLU × 10^6) Rat 1” value ([1]; 50 mg/kg BID oral) was 3.2 RLU × 10^6, the “Intensity (RLU × 10^6) Rat 2” value ([1]; 50 mg/kg BID oral) was 25.6 RLU × 10^6 and the “Intensity (RLU × 10^6) Rat 3” value ([1]; 50 mg/kg BID oral) was 4.5 RLU × 10^6. For the same compound, the “Intensity (RLU × 10^6) Mean” value ([1]; 50 mg/kg BID oral) was 11.1 RLU × 10^6.
